Data: patent US8758816B2, “Compositions comprising azelastine and methods of use thereof” (priority 2004, dated 2014)
Counter-ions that a name gives are not always drawn. Like-named read-outs stand apart in the source and are kept apart here.

How the values were obtained:
[1] = Leaching of azelastine into the polymer of unit dose containers; type: physicochemical
[2] = test system: patients with seasonal allergic rhinitis (SAR); details: in vivo
[3] = human, in vivo; cited from earlier work
[4] = test system: patients with seasonal allergic rhinitis (SAR); experiment: MP 428 study: 14.3.5 Vital Sign Assessments, Safety Population
[5] = Day 14, Patients of Age 12 to 17
[6] = Day 14, Patients of Age 18 and Beyond
[7] = Day 14, baseline at Screening, Patients of Age 12 to 17
[8] = Day 14, baseline at Screening, Patients of Age 18 and Beyond
[9] = Day 14, baseline at Screening, Safety Population
[10] = Screening, Patients of Age 12 to 17
[11] = Screening, Patients of Age 18 and Beyond

CN1CCCC(n2nc(Cc3ccc(Cl)cc3)c3ccccc3c2=O)CC1 (racemic) [Azelastine, (±)-1-(2H)-phthalazinone, 4-[(4-chlorophenyl)methyl]-2-(hexahydro-1-methyl-1H-azepin-4-yl)-, mono-hydrochloride]
leaching into the container material ([1]; HDPE unit dose containers, in contrast to lower-density PE): reduce, substantially reduce, or eliminate leaching | leachability into the container material ([1]; containers of polymers other than HDPE, including polyethylenes of lower density): high degree of undesirable leachability | Body Weight for Patients of Age 12 to 17, Actual, Mean [2]: 104.7 lb | Body Weight for Patients of Age 12 to 17, Actual, Median [2]: 104.0 lb | Body Weight for Patients of Age 12 to 17, Actual, Min-Max [2]: 98-112 lb | Body Weight for Patients of Age 18 and Beyond, Actual, Mean [2]: 186.2 lb | Body Weight for Patients of Age 18 and Beyond, Actual, Median [2]: 177.8 lb | Body Weight for Patients of Age 18 and Beyond, Actual, Min-Max [2]: 102-284 lb | Body Weight, Actual, Mean [2]: 181.2 lb | Body Weight, Actual, Median [2]: 174.0 lb | Body Weight, Actual, Min-Max [2]: 98-284 lb | Respiration, Actual, Median [2]: 16.0 bpm | Respiration, Change from baseline, Median [2]: 0.0 bpm | Respiration, Change from baseline, Min-Max [2]: −4-4 bpm | bitter taste adverse event [3]: 19.7%

CCC(=O)O[C@]1(C(=O)SCF)[C@H](C)C[C@H]2[C@@H]3C[C@H](F)C4=CC(=O)C=C[C@]4(C)[C@@]3(F)[C@@H](O)C[C@@]21C [Fluticasone, fluticasone propionate]
Diastolic Blood Pressure, Actual, Mean ([4]; Day 1, Safety Population): 74.0 mmHg | Diastolic Blood Pressure, Actual, Median ([4]; Day 1, Safety Population): 76.0 mmHg | Diastolic Blood Pressure, Actual, Min-Max ([4]; Day 1, Safety Population): 41-89 mmHg | Pulse Rate, Actual, Mean ([4]; Day 1, Safety Population): 75.0 bpm | Pulse Rate, Actual, Median ([4]; Day 1, Safety Population): 75.0 bpm | Pulse Rate, Actual, Min-Max ([4]; Day 1, Safety Population): 57-92 bpm | Respiration, Actual, Mean ([4]; Day 1, Safety Population): 15.8 bpm | Respiration, Actual, Median ([4]; Day 1, Safety Population): 16.0 bpm | Respiration, Actual, Min-Max ([4]; Day 1, Safety Population): 12-18 bpm | Systolic Blood Pressure, Actual, Mean ([4]; Day 1, Safety Population): 117.9 mmHg | Systolic Blood Pressure, Actual, Median ([4]; Day 1, Safety Population): 118.5 mmHg | Systolic Blood Pressure, Actual, Min-Max ([4]; Day 1, Safety Population): 93-142 mmHg | Temperature, Actual, Mean ([4]; Day 1, Safety Population): 97.89 ° F. | Temperature, Actual, Median ([4]; Day 1, Safety Population): 97.85 ° F. | Temperature, Actual, Min-Max ([4]; Day 1, Safety Population): 97.0-99.8 ° F. | Diastolic Blood Pressure, Actual, Mean ([4]; Day 7, Safety Population): 72.7 mmHg | Diastolic Blood Pressure, Actual, Median ([4]; Day 7, Safety Population): 74.0 mmHg | Diastolic Blood Pressure, Actual, Min-Max ([4]; Day 7, Safety Population): 58-86 mmHg | Diastolic Blood Pressure, Change from baseline, Mean ([4]; Day 7, Safety Population): −1.5 mmHg | Diastolic Blood Pressure, Change from baseline, Median ([4]; Day 7, Safety Population): −1.5 mmHg | Diastolic Blood Pressure, Change from baseline, Min-Max ([4]; Day 7, Safety Population): −15-19 mmHg | Pulse Rate, Actual, Mean ([4]; Day 7, Safety Population): 75.5 bpm | Pulse Rate, Actual, Median ([4]; Day 7, Safety Population): 74.0 bpm | Pulse Rate, Actual, Min-Max ([4]; Day 7, Safety Population): 52-102 bpm | Pulse Rate, Change from baseline, Mean ([4]; Day 7, Safety Population): 0.5 bpm | Pulse Rate, Change from baseline, Median ([4]; Day 7, Safety Population): −2.0 bpm | Pulse Rate, Change from baseline, Min-Max ([4]; Day 7, Safety Population): −29-38 bpm | Respiration, Actual, Mean ([4]; Day 7, Safety Population): 16.0 bpm | Respiration, Actual, Median ([4]; Day 7, Safety Population): 16.0 bpm | Respiration, Actual, Min-Max ([4]; Day 7, Safety Population): 12-20 bpm | Respiration, Change from baseline, Mean ([4]; Day 7, Safety Population): 0.2 bpm | Respiration, Change from baseline, Median ([4]; Day 7, Safety Population): 0.0 bpm | Respiration, Change from baseline, Min-Max ([4]; Day 7, Safety Population): −4-4 bpm | Systolic Blood Pressure, Actual, Mean ([4]; Day 7, Safety Population): 116.7 mmHg | Systolic Blood Pressure, Actual, Median ([4]; Day 7, Safety Population): 116.0 mmHg | Systolic Blood Pressure, Actual, Min-Max ([4]; Day 7, Safety Population): 95-142 mmHg | Systolic Blood Pressure, Change from baseline, Mean ([4]; Day 7, Safety Population): −1.4 mmHg | Systolic Blood Pressure, Change from baseline, Median ([4]; Day 7, Safety Population): −0.5 mmHg | Systolic Blood Pressure, Change from baseline, Min-Max ([4]; Day 7, Safety Population): −21-15 mmHg | Temperature, Actual, Mean ([4]; Day 7, Safety Population): 97.90 ° F. | Temperature, Actual, Median ([4]; Day 7, Safety Population): 97.95 ° F. | Temperature, Actual, Min-Max ([4]; Day 7, Safety Population): 96.0-98.9 ° F. | Temperature, Change from baseline, Mean ([4]; Day 7, Safety Population): −0.03 ° F. | Temperature, Change from baseline, Median ([4]; Day 7, Safety Population): 0.00 ° F. | Temperature, Change from baseline, Min-Max ([4]; Day 7, Safety Population): −1.8-1.8 ° F. | Body Weight for Patients of Age 12 to 17, Actual, Mean [4, 5]: 135.8 lb | Body Weight for Patients of Age 12 to 17, Actual, Median [4, 5]: 121.5 lb | Body Weight for Patients of Age 12 to 17, Actual, Min-Max [4, 5]: 87-197 lb | Body Weight for Patients of Age 18 and Beyond, Actual, Mean [4, 6]: 178.2 lb | Body Weight for Patients of Age 18 and Beyond, Actual, Median [4, 6]: 172.0 lb | Body Weight for Patients of Age 18 and Beyond, Actual, Min-Max [4, 6]: 115-265 lb | Body Weight, Actual, Mean ([4]; Day 14, Safety Population): 173.0 lb | Body Weight, Actual, Median ([4]; Day 14, Safety Population): 168.0 lb | Body Weight, Actual, Min-Max ([4]; Day 14, Safety Population): 87-265 lb | Diastolic Blood Pressure, Actual, Mean ([4]; Day 14, Safety Population): 73.6 mmHg | Diastolic Blood Pressure, Actual, Median ([4]; Day 14, Safety Population): 74.0 mmHg | Diastolic Blood Pressure, Actual, Min-Max ([4]; Day 14, Safety Population): 54-90 mmHg | Diastolic Blood Pressure, Change from baseline, Mean ([4]; Day 14, Safety Population): −0.4 mmHg | Diastolic Blood Pressure, Change from baseline, Median ([4]; Day 14, Safety Population): 0.0 mmHg | Diastolic Blood Pressure, Change from baseline, Min-Max ([4]; Day 14, Safety Population): −24-22 mmHg | Pulse Rate, Actual, Mean ([4]; Day 14, Safety Population): 75.3 bpm | Pulse Rate, Actual, Median ([4]; Day 14, Safety Population): 74.0 bpm | Pulse Rate, Actual, Min-Max ([4]; Day 14, Safety Population): 53-95 bpm | Pulse Rate, Change from baseline, Mean ([4]; Day 14, Safety Population): 0.3 bpm | Pulse Rate, Change from baseline, Median ([4]; Day 14, Safety Population): 1.0 bpm | Pulse Rate, Change from baseline, Min-Max ([4]; Day 14, Safety Population): −22-23 bpm | Respiration, Actual, Mean ([4]; Day 14, Safety Population): 15.8 bpm | Respiration, Actual, Median ([4]; Day 14, Safety Population): 16.0 bpm | Respiration, Actual, Min-Max ([4]; Day 14, Safety Population): 12-20 bpm | Respiration, Change from baseline, Mean ([4]; Day 14, Safety Population): 0.0 bpm | Respiration, Change from baseline, Median ([4]; Day 14, Safety Population): 0.0 bpm | Respiration, Change from baseline, Min-Max ([4]; Day 14, Safety Population): −4-4 bpm | Systolic Blood Pressure, Actual, Mean ([4]; Day 14, Safety Population): 118.9 mmHg | Systolic Blood Pressure, Actual, Median ([4]; Day 14, Safety Population): 117.0 mmHg | Systolic Blood Pressure, Actual, Min-Max ([4]; Day 14, Safety Population): 98-170 mmHg | Systolic Blood Pressure, Change from baseline, Mean ([4]; Day 14, Safety Population): 1.0 mmHg | Systolic Blood Pressure, Change from baseline, Median ([4]; Day 14, Safety Population): 1.5 mmHg | Systolic Blood Pressure, Change from baseline, Min-Max ([4]; Day 14, Safety Population): −20-40 mmHg | Temperature, Actual, Mean ([4]; Day 14, Safety Population): 97.86 ° F. | Temperature, Actual, Median ([4]; Day 14, Safety Population): 97.90 ° F. | Temperature, Actual, Min-Max ([4]; Day 14, Safety Population): 96.2-99.1 ° F. | Temperature, Change from baseline, Mean ([4]; Day 14, Safety Population): −0.03 ° F. | Temperature, Change from baseline, Median ([4]; Day 14, Safety Population): 0.10 ° F. | Temperature, Change from baseline, Min-Max ([4]; Day 14, Safety Population): −1.6-2.0 ° F. | Body Weight for Patients of Age 12 to 17, Change from baseline, Mean [4, 7]: −0.5 lb | Body Weight for Patients of Age 12 to 17, Change from baseline, Median [4, 7]: −0.5 lb | Body Weight for Patients of Age 12 to 17, Change from baseline, Min-Max [4, 7]: −2-2 lb | Body Weight for Patients of Age 18 and Beyond, Change from baseline, Mean [4, 8]: −0.5 lb | Body Weight for Patients of Age 18 and Beyond, Change from baseline, Median [4, 8]: 0.0 lb | Body Weight for Patients of Age 18 and Beyond, Change from baseline, Min-Max [4, 8]: −6-7 lb | Body Weight, Change from baseline, Mean [4, 9]: −0.5 lb | Body Weight, Change from baseline, Median [4, 9]: 0.0 lb | Body Weight, Change from baseline, Min-Max [4, 9]: −6-7 lb | Body Weight for Patients of Age 12 to 17, Actual, Mean [4, 10]: 136.3 lb | Body Weight for Patients of Age 12 to 17, Actual, Median [4, 10]: 122.5 lb | Body Weight for Patients of Age 12 to 17, Actual, Min-Max [4, 10]: 85-199 lb | Body Weight for Patients of Age 18 and Beyond, Actual, Mean [4, 11]: 177.9 lb | Body Weight for Patients of Age 18 and Beyond, Actual, Median [4, 11]: 169.5 lb | Body Weight for Patients of Age 18 and Beyond, Actual, Min-Max [4, 11]: 117-269 lb | Body Weight, Actual, Mean ([4]; Screening, Safety Population): 172.9 lb | Body Weight, Actual, Median ([4]; Screening, Safety Population): 168.5 lb | Body Weight, Actual, Min-Max ([4]; Screening, Safety Population): 85-269 lb | Diastolic Blood Pressure, Actual, Mean ([4]; Screening, Safety Population): 75.6 mmHg | Diastolic Blood Pressure, Actual, Median ([4]; Screening, Safety Population): 78.0 mmHg | Diastolic Blood Pressure, Actual, Min-Max ([4]; Screening, Safety Population): 50-95 mmHg | Pulse Rate, Actual, Mean ([4]; Screening, Safety Population): 75.5 bpm | Pulse Rate, Actual, Median ([4]; Screening, Safety Population): 78.0 bpm | Pulse Rate, Actual, Min-Max ([4]; Screening, Safety Population): 50-103 bpm | Respiration, Actual, Mean ([4]; Screening, Safety Population): 15.7 bpm | Respiration, Actual, Median ([4]; Screening, Safety Population): 16.0 bpm | Respiration, Actual, Min-Max ([4]; Screening, Safety Population): 12-20 bpm | Systolic Blood Pressure, Actual, Mean ([4]; Screening, Safety Population): 121.2 mmHg | Systolic Blood Pressure, Actual, Median ([4]; Screening, Safety Population): 119.5 mmHg | Systolic Blood Pressure, Actual, Min-Max ([4]; Screening, Safety Population): 96-156 mmHg | Temperature, Actual, Mean ([4]; Screening, Safety Population): 98.04 ° F. | Temperature, Actual, Median ([4]; Screening, Safety Population): 98.00 ° F. | Temperature, Actual, Min-Max ([4]; Screening, Safety Population): 96.9-99.3 ° F.
